Data on 65 molecules can be found in patent publication US12162867B2, “Inhibitors of RNA helicase DHX9 and uses thereof” (ACCENT THERAPEUTICS, INC., priority 2022, dated 2024).

The test system of one assay is circBRIP1 in HCT116 cells. The assay is described as follows: DHX9 circBRIP1 cellular target engagement TaqMan Multiplex assay (qPCR). The assay is classed as cell-based. The settings on record: Homo sapiens, HCT-116, 72 h, circBRIP1, HCT116 cells, 72 hours; Taqman assay (marked *); read-out: DHX9 Cellular Target Engagement EC50.
In the case of `Cc1sc(C(=O)Nc2cc(Cl)cc(NS(C)(=O)=O)c2)cc1-c1ncc(C(F)(F)F)cc1F` [Example 368], the EC50 was determined as 310 nM.

As for `Cc1cccnc1-c1csc(C(=O)Nc2cc(Cl)cc(N(C)S(C)(=O)=O)c2)c1` [Example 374], the EC50 was above 10000 nM. Same read-out and setting: in the case of `CCS(=O)(=O)Nc1cc(Cl)cc(NC(=O)c2cc(-c3ncc(F)cc3Cl)c(C)s2)c1` [Example 355] it was 362 nM; in that of `COc1cnc(-c2cc(C(=O)Nc3cc(Cl)cc(NS(C)(=O)=O)c3)sc2C)c(Cl)c1` [Example 364], 387 nM. The same measure, in the same setting: in the case of `Cc1cccnc1-c1ccc(C(=O)Nc2cc(Cl)cc(NS(C)(=O)=O)c2)s1` [Example 386] it was 1970 nM; in that of `Cc1sc(C(=O)Nc2cc(Cl)cc(NS(C)(=O)=O)c2)cc1-c1c(F)cncc1F` [Example 362], 124 nM.

Consider `CCS(=O)(=O)Nc1cc(Cl)cc(NC(=O)c2cc(-c3ncc(C(F)(F)F)cn3)c(C)s2)c1` [Example 366], for which the EC50 was found to be 128 nM. As to `Cc1sc(C(=O)Nc2cc(Cl)cc(NS(C)(=O)=O)c2)cc1-c1ncc(F)cc1Cl` [Example 359], the 50% effective concentration (EC50) came out at 130 nM. For the molecule `Cc1cc(F)cnc1-c1cc(C(=O)Nc2cc(Cl)cc(NS(C)(=O)=O)c2)sc1C` [Example 348], the EC50 came out at 228 nM.

The assay is the same for the next values; noted with them: Homo sapiens, HCT-116, circBRIP1, HCT116 cells; * Taqman assay was used; read-out: DHX9 Cellular Target Engagement EC50.
Take `Cn1cc(C(=O)Nc2cc(Cl)cc(NS(C)(=O)=O)c2)cc1-c1ccc(N2CCN(C(=O)C(C)(C)C)CC2)cn1` [Example 591]: the 50% effective concentration (EC50) came out at 130 nM. Turning to `CCS(=O)(=O)Nc1cc(Cl)cc(NC(=O)c2cc(-c3ncc(F)cn3)n(C)c2)c1` [Example 542], the EC50 amounted to 307 nM.

Consider `Cc1cc(C(=O)Nc2cc(Cl)cc(NS(C)(=O)=O)c2)cn1-c1ncc(N2CC(F)(F)C2)cc1C(F)(F)F` [Example 407], for which the EC50 stood at 517 nM. On the same count and under the same terms, in the case of `CS(=O)(=O)Nc1cc(Cl)cc(NC(=O)c2cc(-c3ncc(F)cn3)c(Cl)s2)c1` [Example 450] it was 266 nM. `Cc1sc(C(=O)Nc2cc(Cl)cc(NS(C)(=O)=O)c2)cc1-c1ncc(N2CCC(C(F)(F)F)CC2)cc1F` [Example 481]: the concentration for a half-maximal effect (EC50) amounted to 128 nM.

With `Cc1cccnc1-c1csc(C(=O)Nc2cc(Cl)cc(NS(C)(=O)=O)c2)c1C` [Example 684], the half-maximal effective concentration (EC50) was above 10000 nM. Consider `COc1cnc(-c2cc(C(=O)Nc3cc(Cl)cc(NS(C)(=O)=O)c3)cn2CC(F)(F)F)nc1` [Example 563], for which the EC50 is 327 nM. Consider `Cc1sc(C(=O)Nc2cc(Cl)cc(NS(C)(=O)=O)c2)cc1-c1ncc(F)cc1N1CCC2(CC1)CC2` [Example 507], for which the EC50 is 1860 nM.

`Cn1cc(C(=O)Nc2cc(Cl)cc(NS(C)(=O)=O)c2)cc1-c1ncc(OC2CN(C(=O)C3CC3)C2)cc1F` [Example 697]: the EC50 turned out to be 329 nM.

Regarding `Cc1cc(N2CC(F)(F)C2)cnc1-n1cc(C(=O)Nc2cc(Cl)cc(NS(C)(=O)=O)c2)cc1C` [Example 419], the EC50 was 121 nM.

For `Cc1sc(C(=O)Nc2cc(Cl)cc(NS(C)(=O)=O)c2)nc1-c1ccc(F)cn1` [Example 716], the concentration giving a half-maximal response (EC50) was above 10000 nM. Take `Cn1cc(C(=O)Nc2cc(Cl)cc(NS(C)(=O)=O)c2)cc1-c1ncc(F)cc1Cl` [Example 544]: the EC50 came out at 538 nM. On the same count and under the same terms, in the case of `Cn1cc(C(=O)Nc2cc(Cl)cc(NS(C)(=O)=O)c2)cc1-c1ncc(F)cc1/C=C/c1cncc(F)c1` [Example 729] it was 382 nM; in that of `Cc1sc(C(=O)Nc2cc(Cl)cc(NS(C)(=O)=O)c2)cc1-c1ncc(OC(C)C(=O)O)cn1` (centres unmarked) [Example 671], above 10000 nM. Take `CS(=O)(=O)Nc1cc(Cl)cc(NC(=O)c2cc(-c3ncc(F)cn3)n(C3CC3)c2)c1` [Example 712]: the concentration for a half-maximal effect (EC50) amounted to 312 nM. Regarding `CC(C)Oc1cnc(-c2csc(C(=O)Nc3cc(Cl)cc(NS(C)(=O)=O)c3)c2)c(F)c1` [Example 458], the EC50 is 199 nM. `CCS(=O)(=O)Nc1cc(Cl)cc(NC(=O)c2cc(-c3ncc(OC(C)(C)C)cn3)c(C)s2)c1` [Example 566]: the EC50 came to 156 nM. Regarding `CS(=O)(=O)Nc1cc(Cl)cc(NC(=O)c2cc(-c3ncc(F)cn3)n(CC(F)(F)F)c2)c1` [Example 562], the EC50 is 543 nM.

Consider `Cc1sc(C(=O)Nc2cc(Cl)cc(NS(C)(=O)=O)c2)cc1-c1ccc(P(C)(C)=O)cn1` [Example 647], for which the EC50 came to 998 nM.

On to `COC1CCN(c2cc(F)cnc2-c2cc(C(=O)Nc3cc(Cl)cc(NS(C)(=O)=O)c3)sc2C)C1` (centres unmarked) [Example 505], for which the EC50 was 219 nM. Turning to `Cn1cc(C(=O)Nc2cc(Cl)cc(NS(C)(=O)=O)c2)cc1-c1ncc(C(F)(F)F)cc1F` [Example 554], the EC50 was found to be 238 nM. For `Cc1sc(C(=O)Nc2cc(Cl)cc(NS(C)(=O)=O)c2)cc1-c1ncc(N2CCC3(CC2)CC3)cc1F` [Example 467], the EC50 stood at 164 nM. Turning to `CCS(=O)(=O)Nc1cc(Cl)cc(NC(=O)c2cc(-c3ncc(F)cc3F)n(C)c2)c1` [Example 543], the EC50 came to 183 nM.

Consider `Cn1cc(C(=O)Nc2cc(Cl)cc(NS(C)(=O)=O)c2)cc1-c1cc(N2CC(F)(F)C2)ccn1` [Example 552], for which the EC50 was found to be 238 nM. On the same count and under the same terms, in the case of `CCOc1cc(F)cnc1-c1cc(C(=O)Nc2cc(Cl)cc(NS(C)(=O)=O)c2)cn1C` [Example 561] it was 274 nM. On the same count and under the same terms, in the case of `CS(=O)(=O)Nc1cc(Cl)cc(NC(=O)c2cc(-c3ncccc3F)n(CC(F)(F)F)c2)c1` [Example 564] it was 761 nM. As for `Cc1sc(C(=O)Nc2cc(Cl)cc(NS(=O)(=O)CCO)c2)cc1-c1ncc(N2CC(C(F)(F)F)C2)cc1F` [Example 529], the EC50 was 253 nM. As for `Cc1cc(C(=O)Nc2cc(Cl)cc(NS(C)(=O)=O)c2)cn1-c1ncc(N2CCC3(C2)CC3(F)F)cc1F` (centres unmarked) [Example 414], the EC50 was 128 nM. Same read-out and setting: in the case of `Cc1sc(C(=O)Nc2cc(Cl)cc(NS(C)(=O)=O)c2)cc1-c1ncc(OC2CNC2)cc1F` [Example 637] it was 427 nM; in that of `CS(=O)(=O)Nc1cc(Cl)cc(NC(=O)c2cc(-c3ccc(F)cn3)n(S(C)(=O)=O)c2)c1` [Example 701], 638 nM.

On to `CCCS(=O)(=O)Nc1cc(Cl)cc(NC(=O)c2cc(-c3ccc(N4CC(F)(F)C4)cn3)n(C)c2)c1` [Example 531], for which the half-maximal effective concentration (EC50) is above 10000 nM.

Regarding `Cc1sc(C(=O)Nc2cc(Cl)cc(NS(C)(=O)=O)c2)cc1-c1ncc(C(C)(O)C2CN(C)C2)cc1F` (centres unmarked) [Example 653], the 50% effective concentration (EC50) was found to be 292 nM. Take `CN1CC(Oc2cnc(-c3cc(C(=O)Nc4cc(Cl)cc(NS(C)(=O)=O)c4)cn3CC(F)F)nc2)C1` [Example 679]: the concentration giving a half-maximal response (EC50) is 196 nM. In the case of `Cc1cc(C(=O)Nc2cc(Cl)cc(NS(C)(=O)=O)c2)cn1-c1ncc(N2CCCC2=O)cn1` [Example 401], the concentration giving a half-maximal response (EC50) was found to be 135 nM. With `Cc1cc(F)cnc1-c1cc(C(=O)Nc2cc(Cl)cc(NS(C)(=O)=O)c2)cn1C` [Example 545], the concentration for a half-maximal effect (EC50) was determined as 192 nM. With `Cc1cc(C(=O)Nc2cc(Cl)cc(NS(C)(=O)=O)c2)cn1-c1ccc(OC(C)(C)C)cn1` [Example 663], the EC50 was 124 nM. Consider `Cn1cc(C(=O)Nc2cc(Cl)cc(NS(C)(=O)=O)c2)cc1-c1ccccc1/C=C/c1cncc(F)c1` [Example 727], for which the half-maximal effective concentration (EC50) amounted to 710 nM. On to `Cc1cc(N2CCC(F)(F)CC2)cnc1-c1cc(C(=O)Nc2cc(Cl)cc(NS(C)(=O)=O)c2)sc1C` [Example 602], for which the EC50 worked out at 180 nM. On to `CN1CC[C@@H](Oc2cnc(-c3cc(C(=O)Nc4cc(Cl)cc(NS(C)(=O)=O)c4)cn3C)c(F)c2)C1` [Example 640], for which the concentration giving a half-maximal response (EC50) is 16.2 nM. In the case of `Cc1sc(C(=O)Nc2cc(Cl)cc(NS(C)(=O)=O)c2)cc1-c1ncc(O)cn1` [Example 583], the EC50 was determined as 43.1 nM. In the case of `Cc1cc(C(=O)Nc2cc(Cl)cc(NS(C)(=O)=O)c2)cn1-c1ncc(N2CC(F)(F)C2)cc1OC1CCC1` [Example 673], the concentration giving a half-maximal response (EC50) was 130 nM.

With `Cc1cc(C(=O)Nc2cc(Cl)cc(NS(C)(=O)=O)c2)cn1-c1ccc(N2CCOC2=O)cn1` [Example 416], the EC50 stood at 133 nM. As to `Cc1cc(C(=O)Nc2cc(Cl)cc(NS(C)(=O)=O)c2)cn1-c1ncc(OC(C)(C)C)cc1F` [Example 662], the EC50 came out at 140 nM. As to `CCS(=O)(=O)Nc1cc(Cl)cc(NC(=O)c2cc(C)n(-c3ncc(F)cc3Cl)c2)c1` [Example 446], the half-maximal effective concentration (EC50) amounted to 966 nM. With `CN1CC[C@H](Oc2cnc(-c3cc(C(=O)Nc4cc(Cl)cc(NS(C)(=O)=O)c4)cn3CC(F)(F)F)nc2)C1` [Example 642], the EC50 amounted to 94.5 nM.

Turning to `Cc1sc(C(=O)Nc2cc(Cl)cc(NS(C)(=O)=O)c2)c(F)c1-c1ncc(OC(C)C)cn1` [Example 683], the EC50 was above 10000 nM. With `Cn1cc(C(=O)Nc2cc(Cl)cc(NS(C)(=O)=O)c2)cc1-c1ncc(N2CCC(C(F)(F)F)CC2)cc1F` [Example 472], the concentration for a half-maximal effect (EC50) worked out at 127 nM. On the same count and under the same terms, in the case of `Cc1sc(C(=O)Nc2cc(Cl)cc(NS(C)(=O)=O)c2)cc1N1C(=O)N(C)C(C)(c2ccccn2)C1=O` (centres unmarked) [Example 660] it was above 10000 nM; in that of `Cc1cnc(-c2cc(C(=O)Nc3cc(Cl)cc(NS(C)(=O)=O)c3)cn2C)c(F)c1` [Example 580], 156 nM; in that of `CCS(=O)(=O)Nc1cc(Cl)cc(NC(=O)c2cc(-c3ncc(C(F)(F)F)cc3C)c(C)s2)c1` [Example 700], 871 nM.

As to `Cn1cc(C(=O)Nc2cc(Cl)cc(NS(C)(=O)=O)c2)cc1-c1ccc(N2CCC3(C2)CC3(F)F)cn1` (centres unmarked) [Example 495], the EC50 came out at 142 nM. Still for that read-out and setting: in the case of `Cn1cc(C(=O)Nc2cc(Cl)cc(NS(C)(=O)=O)c2)cc1-c1ccc(N2CCN(C(=O)C3CC3)CC2)cn1` [Example 594] it was 140 nM; in that of `CC(=O)N1CCN(c2cc(F)cnc2-c2cc(C(=O)Nc3cc(Cl)cc(NS(C)(=O)=O)c3)sc2C)CC1` [Example 504], 6860 nM. For the molecule `Cc1sc(C(=O)Nc2cc(Cl)cc(NS(C)(=O)=O)c2)cc1-c1ncc(C2(O)CN(C)C2)cc1F` [Example 681], the concentration for a half-maximal effect (EC50) was 133 nM. Take `Cn1cc(C(=O)Nc2cc(Cl)cc(NS(C)(=O)=O)c2)cc1-c1ccc(N2CCN(C(=O)C3CCCC3)CC2)cn1` [Example 592]: the EC50 came to 303 nM.

For `CCc1cncc(COc2cccnc2-c2cc(C(=O)Nc3cc(Cl)cc(NS(C)(=O)=O)c3)cn2C)c1` [Example 730], the EC50 was determined as 171 nM.
